Several values for one entry are separate records, joined by “and”; a condition that tells them apart may be missing. Equal entries are not always repeated. Inconclusive results and toxic doses are left out. Rule as the data show it: active = T/C of 150% or more; inactive = T/C below 125%.
Test system: L1210 leukemia ip in BDF1 mice, survival T/C
Assay: NCI In Vivo Anticancer Drug Screen. Data for tumor model L1210 Leukemia (intraperitoneal) in B6D2F1 (BDF1) mice
Settings: endpoint: mean survival time, higher = longer survival
Summary of the method: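 Each compound was tested against a transplantable tumor grown in mice. The endpoint was survival, with treated animals benchmarked against vehicle controls as a simple ratio.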

[1] = dose: 100.0 mg/kg/injection, schedule: Q01DX001 (ip), vehicle: other
[2] = dose: 200.0 mg/kg/injection, schedule: Q01DX001 (ip), vehicle: other
[3] = dose: 400.0 mg/kg/injection, schedule: Q01DX001 (ip), vehicle: other
[4] = dose: 100.0 mg/kg/injection, schedule: Q01DX001 (ip), vehicle: carboxymethylcellulose (CMC)
[5] = dose: 200.0 mg/kg/injection, schedule: Q01DX001 (ip), vehicle: carboxymethylcellulose (CMC)
[6] = dose: 400.0 mg/kg/injection, schedule: Q01DX001 (ip), vehicle: carboxymethylcellulose (CMC)
[7] = dose: 100.0 mg/kg/injection, schedule: Q01DX001 (ip), vehicle: saline
[8] = dose: 200.0 mg/kg/injection, schedule: Q01DX001 (ip), vehicle: saline
[9] = dose: 100.0 mg/kg/injection, schedule: Q04DX003 (ip), vehicle: saline
[10] = dose: 200.0 mg/kg/injection, schedule: Q04DX003 (ip), vehicle: saline
[11] = dose: 400.0 mg/kg/injection, schedule: Q04DX003 (ip), vehicle: saline
[12] = dose: 100.0 mg/kg/injection, schedule: Q04DX003 (ip), vehicle: Klucel (hydroxypropylcellulose) (HPC)
[13] = dose: 200.0 mg/kg/injection, schedule: Q04DX003 (ip), vehicle: Klucel (hydroxypropylcellulose) (HPC)
[14] = dose: 400.0 mg/kg/injection, schedule: Q04DX003 (ip), vehicle: Klucel (hydroxypropylcellulose) (HPC)
[15] = dose: 100.0 mg/kg/injection, schedule: Q01DX009 (ip), vehicle: saline
[16] = dose: 200.0 mg/kg/injection, schedule: Q01DX009 (ip), vehicle: saline
[17] = dose: 400.0 mg/kg/injection, schedule: Q01DX009 (ip), vehicle: saline

Measured: T/C

CCOC(=O)c1cnc(SC)nc1N(CC)c1ccccc1
inactive: dose: 100.0 mg/kg/injection, schedule: Q01DX009 (ip), vehicle: gum acacia 105 % of control | dose: 100.0 mg/kg/injection, schedule: Q04DX003 (ip), vehicle: gum acacia 102 % of control | dose: 200.0 mg/kg/injection, schedule: Q01DX009 (ip), vehicle: gum acacia 100 % of control | dose: 200.0 mg/kg/injection, schedule: Q04DX003 (ip), vehicle: gum acacia 102 % of control | dose: 400.0 mg/kg/injection, schedule: Q01DX009 (ip), vehicle: gum acacia 102 % of control | dose: 400.0 mg/kg/injection, schedule: Q04DX003 (ip), vehicle: gum acacia 102 % of control

CCCCCCCCCC(CC)(CCCCCCC)CCCCCCCC (centres undefined)
inactive: dose: 100.0 mg/kg/injection, schedule: Q01DX001 (ip), vehicle: saline with Tween-80 103 % of control | dose: 200.0 mg/kg/injection, schedule: Q01DX001 (ip), vehicle: saline with Tween-80 99 % of control | dose: 400.0 mg/kg/injection, schedule: Q01DX001 (ip), vehicle: saline with Tween-80 103 % of control

S=c1[nH]c(=S)c2[nH]cnc2[nH]1
inactive: dose: 50.0 mg/kg/injection, schedule: Q01DX001 (ip), vehicle: other 113 % of control | dose: 50.0 mg/kg/injection, schedule: Q01DX009 (ip), vehicle: other 94 % of control | [1] 101 % of control | dose: 100.0 mg/kg/injection, schedule: Q01DX009 (ip), vehicle: other 96 % of control | [2] 103 % of control | dose: 200.0 mg/kg/injection, schedule: Q01DX009 (ip), vehicle: other 97 % of control | [3] 107 % of control | dose: 400.0 mg/kg/injection, schedule: Q01DX009 (ip), vehicle: other 102 % of control | dose: 600.0 mg/kg/injection, schedule: Q01DX001 (ip), vehicle: other 100 % of control | dose: 1200.0 mg/kg/injection, schedule: Q01DX001 (ip), vehicle: other 117 % of control

COc1ccc(OC)c(COC(=O)c2ccccc2)c1COC(=O)c1ccccc1
inactive: [4] 95 % of control | [5] 101 % of control | [6] 95 % of control

CC1CN(CCCCO)C(=O)NC1=O (centres undefined)
inactive: [7] 90 % of control | [8] 88 % of control

C/C(=N\O)C(C)(C)C
inactive: dose: 25.0 mg/kg/injection, schedule: Q04DX002 (ip), vehicle: Klucel (hydroxypropylcellulose) (HPC) 98 % of control | dose: 50.0 mg/kg/injection, schedule: Q04DX002 (ip), vehicle: Klucel (hydroxypropylcellulose) (HPC) 91 % of control | dose: 100.0 mg/kg/injection, schedule: Q04DX002 (ip), vehicle: Klucel (hydroxypropylcellulose) (HPC) 94 % of control and 103 % of control

COc1ccc(C(CC(=O)c2ccccc2)SCCN2CCOCC2)cc1 (centres undefined)
inactive: dose: 100.0 mg/kg/injection, schedule: Q04DX003 (ip), vehicle: saline with Tween-80 95 % of control | dose: 200.0 mg/kg/injection, schedule: Q04DX003 (ip), vehicle: saline with Tween-80 99 % of control

COc1cccc(/C=C(/SC)S(C)=O)c1OC (centres undefined)
inactive: [9] 105 % of control | [10] 106 % of control | [11] 102 % of control

Cc1c(C(=O)O)sc2ccc([N+](=O)[O-])cc12
inactive: [4] 97 % of control | [5] 95 % of control | [6] 92 % of control

C=Cc1cc[n+](Cc2ccc(C[n+]3ccc(C=C)cc3)cc2)cc1
inactive: [4] 91 % of control | [5] 91 % of control | [6] 87 % of control

CCCCCCCCCCCC(C)NCc1ccccc1 (centres undefined)
inactive: dose: 6.25 mg/kg/injection, schedule: Q01DX009 (ip), vehicle: saline with Tween-80 89 % of control | dose: 12.5 mg/kg/injection, schedule: Q01DX009 (ip), vehicle: saline with Tween-80 89 % of control | dose: 25.0 mg/kg/injection, schedule: Q01DX009 (ip), vehicle: saline with Tween-80 97 % of control | dose: 25.0 mg/kg/injection, schedule: Q04DX003 (ip), vehicle: saline 94 % of control | dose: 35.0 mg/kg/injection, schedule: Q01DX009 (ip), vehicle: acetone 92 % of control

CC(=O)OC12C3CCCC1CCCC2CCC3 (centres undefined)
inactive: [12] 109 % of control | [13] 93 % of control | [14] 93 % of control

Cc1cc(=O)[nH]cn1
inactive: [9] 100 % of control | [10] 112 % of control | [11] 94 % of control

CCCCCCCCCCCCCCCCCCc1cc(C)ccc1C
inactive: [1] 107 % of control | [2] 90 % of control | [3] 104 % of control

CCN(CC)CCOC(=O)C(S)(c1ccccc1)c1ccccc1
inactive: dose: 75.0 mg/kg/injection, schedule: Q01DX001 (ip), vehicle: other 100 % of control

O=S(=O)(O)CCBr
inactive: dose: 50.0 mg/kg/injection, schedule: Q01DX001 (ip), vehicle: saline 108 % of control | [7] 96 % of control and 104 % of control | [15] 97 % of control | [8] 101 % of control and 108 % of control | [16] 96 % of control | dose: 400.0 mg/kg/injection, schedule: Q01DX001 (ip), vehicle: saline 104 % of control and 106 % of control | [17] 108 % of control

O=[N+]([O-])c1ccccc1SNc1ccccc1
inactive: dose: 100.0 mg/kg/injection, schedule: Q01DX009 (ip), vehicle: Klucel (hydroxypropylcellulose) (HPC) 102 % of control | [12] 96 % of control | dose: 200.0 mg/kg/injection, schedule: Q01DX009 (ip), vehicle: Klucel (hydroxypropylcellulose) (HPC) 105 % of control | dose: 400.0 mg/kg/injection, schedule: Q01DX009 (ip), vehicle: Klucel (hydroxypropylcellulose) (HPC) 107 % of control | [14] 103 % of control

C=Cc1c(C)c2cc3[nH]c(cc4nc(cc5nc(cc1[nH]2)C(C)=C5CCC(=O)O)C(CCC(=O)O)=C4C)c(C)c3C=C
inactive: dose: 100.0 mg/kg/injection, schedule: Q04DX003 (ip), vehicle: dextrose 96 % of control | dose: 200.0 mg/kg/injection, schedule: Q04DX003 (ip), vehicle: dextrose 100 % of control | dose: 400.0 mg/kg/injection, schedule: Q01DX009 (ip), vehicle: saline with Tween-80 88 % of control | dose: 400.0 mg/kg/injection, schedule: Q04DX003 (ip), vehicle: dextrose 100 % of control

CCC1OC(C)CC(C)(C)O1 (centres undefined)
inactive: dose: 50.0 mg/kg/injection, schedule: Q01DX009 (ip), vehicle: saline 96 % of control | [15] 101 % of control | dose: 100.0 mg/kg/injection, schedule: Q04DX002 (ip), vehicle: saline with Tween-80 93 % of control | dose: 100.0 mg/kg/injection, schedule: Q04DX003 (ip), vehicle: acetone 118 % of control | [16] 96 % of control | dose: 200.0 mg/kg/injection, schedule: Q04DX002 (ip), vehicle: saline with Tween-80 97 % of control | dose: 200.0 mg/kg/injection, schedule: Q04DX003 (ip), vehicle: acetone 120 % of control | dose: 400.0 mg/kg/injection, schedule: Q04DX002 (ip), vehicle: saline with Tween-80 101 % of control | dose: 400.0 mg/kg/injection, schedule: Q04DX003 (ip), vehicle: acetone 101 % of control

OC1CCNc2ccccc21 (centres undefined)
inactive: [15] 104 % of control | [16] 105 % of control | [17] 112 % of control

O=C(CCCCOc1ccc([N+](=O)[O-])cc1Cl)Nc1ccc(S(=O)(=O)F)cc1
inactive: [12] 97 % of control | [13] 90 % of control | [14] 90 % of control

Source: PubChem BioAssay AID248 (DTP/NCI, 2004)
